Results published in patent US12576040B2, “Ionizable lipids and methods of manufacture and use thereof” (priority 2020, dated 2026).
Where two headings read alike, the source gives them in different places. Marks after values point to notes of the source that are not given here.

How the values were obtained:
[1] = type: physicochemical; details: for pKa,ZP: LNP containing the ionizable lipid, Henderson Hasselbalch fit to zeta potential; for pI, ZP: LNP isoelectric pI from zeta potential
Method: (§1) • A: Ribogreen Assay for mRNA Encapsulation Efficiency. 1×TE Buffer and Triton Buffer (2% v/v in 1×TE Buffer) were added in duplicates into a black microplate per LNP. LNPs were diluted to 4 ng/ul in 1×DPBS pH 7.4 and added to each TE/Triton well in a ratio 1:1. Two standard curves were included in the Ribogreen Assay, one containing mRNA and 1×TE Buffer and other containing mRNA and Triton Buffer. Each one of these standard curves were used to calculate the mRNA concentration in each TE Buffer or Triton Buffer. This approach using two standard curves is more accurate for calculating the encapsulation efficiency and mRNA concentrations, in comparison to a single standard curve. Standards were included in the microplate after diluted LNPs were added to the plate. Microplates were incubated at 37° C. for 10 minutes to extract LNPs with Triton. Ribogreen reagent was diluted 1:100 in 1×TE Buffer and added to each well in a ratio 1:1. Microplates were immediately introduced into the Cytation 5 Cell Imaging Multi-Mode Reader (Biotek) to read Fluorescence (Ex485/Em528). The results are illustrated in FIG. 34. • B: Dynamic Light Scattering for LNP Size (red dots are PDI right y axis). LNPs were diluted to 6.25 ng/ul in 1×DPBS pH 7.4 and transferred into a quartz cuvette (ZEN2112) to measure size by Dynamic Light Scattering (DLS) in the Zetasizer Nano ZS (Malvern Panalytical) using particle RI of 1.45 and Absorption of 0.001 in 1×PBS at 25° C. with viscosity of 1.02 cP and RI of 1.335. Measurements were made using a 173° Backscatter angle of detection previously equilibrated to 25° C. for 30 seconds in duplicates, each with 5 runs and 10 second run duration, without delay between measurements. […] Data was analyzed using a General-Purpose model with normal resolution. The results are illustrated in FIG. 35. • C: Zeta Potential for LNP charge, pKa and pI. LNPs were diluted in a 75 mM TNS Buffer (10 mM of each of glycylglycine, acetate, imidazole, 20 mM borate, 25 mM NaCl) to contain 0.8 mg of total mRNA in 800 ul of the TNS Buffer and transferred into a Folded Capillary Zeta Cell (DTS1070) to measure size by Dynamic Light Scattering (DLS) and electrophoretic mobility by Electrophoretic Light Scattering (ELS) in the Zetasizer Nano ZS (Malvern Panalytical). Zeta potential is measured under conditions of controlled voltage to limit ohmic heating in a solution with 4 buffers with pKas spread across the pH range 3-10 with 0.5 intervals. LNP pKa is calculated by fitting the Henderson Hasselbalch equation to zeta potential data. LNP pI is found by interpolating zeta potential to zero. We use electrokinetic models to calculate Henry's function and charge of the LNP. The results are illustrated in FIG. 36. • D: TNS Assay for LNP pKa. LNPs were diluted to keep a final concentration of 75 uM of the ionizable lipid and 6 uM of TNS in a 75 mM TNS Buffer (10 mM of each of glycylglycine, acetate, imidazole, 20 mM borate, 25 mM NaCl) in order to keep a ratio TNS/ionizable of 0.08. Fluorescence TNS is measured in a solution with 4 buffers with pKas spread across the pH range 3-10 with 0.5 intervals. The pKa of the LNP was measured using the pH-dependence of fluorescence enhancement of the anionic dye TNS, higher intensity at lower pH and lower at high pH. LNP pKa is calculated by fitting the Henderson Hasselbalch equation to fluorescence data from the TNS Assay. The results are illustrated in FIG. 37.
LNPs were diluted to 6.25 ng/μL total mRNA in PBS pH=7.4 and transferred into a quartz cuvette (ZEN2112) to measure size by Dynamic Light Scattering (DLS) in the Zetasizer Nano ZS (Malvern Panalytical) using particle RI of 1.45 and absorption of 0.001 in PBS at 25° C. with viscosity of 0.888 cP and RI of 1.335. Measurements were made using a 1730 backscatter angle of detection previously equilibrated to 25° C. for 30 seconds in duplicates, each with 5 runs and 10 second run duration, without delay between measurements. […]

[2] = type: physicochemical; details: LNP containing the ionizable lipid
Method: as §1, with “LNPs were diluted to keep a final concentration of 75 uM of the ionizable lipid and 6 uM of TNS in a 75 mM TNS Buffer (10 mM of each of glycylglycine, acetate, imidazole, 20 mM borate, 25 mM NaCl) in order to keep a ratio TNS/ionizable of 0.08.” left out, “The results are illustrated in FIG. 37.” left out
LNP pKa was determined using the TNS assay. […] The Cytation 5 Cell Imaging Multi-Mode Reader (Biotek) was used to read Fluorescence (Ex321/Em445). The pH was measured in each well after TNS addition. […]

[3] = Dynamic Light Scattering for LNP size; type: physicochemical; details: number-average from DLS
Method: as §1, with “37. […]” for “37.”

[4] = mRNA copies per LNP from molecular volume model and DLS diameter; type: physicochemical; details: average mRNA copies per LNP
Method: Exemplary ADDE ionizable lipids. pKas were obtained from ACDLabs Percepta for the ionizable lipid, and by zeta potential and TNS for LNPs containing the ionizable lipids. LNP isoelectric pI was obtained from the zeta potential. LNP diameter is number-average from DLS. Average mRNA copies per LNP was calculated using a molecular volume model and the DLS diameter and is proportional to LNP volume.
LNPs were diluted to 6.25 ng/μL total mRNA in PBS pH=7.4 and transferred into a quartz cuvette (ZEN2112) to measure size by Dynamic Light Scattering (DLS) in the Zetasizer Nano ZS (Malvern Panalytical) using particle RI of 1.45 and absorption of 0.001 in PBS at 25° C. with viscosity of 0.888 cP and RI of 1.335. Measurements were made using a 1730 backscatter angle of detection previously equilibrated to 25° C. for 30 seconds in duplicates, each with 5 runs and 10 second run duration, without delay between measurements. […] Data was analyzed using a General-Purpose model with normal resolution. Diameter are reported as the number-average that corresponds more closely to physical size seen in electron microscopy versus the zeta-average. A molecular volume model described previously was used to estimate the number of mRNA copies in the LNP using the number average diameter to calculate LNP volume. LNPs were diluted into the TNS buffer described above at pH ranging from 3-10 for zeta potential measurement by Electrophoretic Light Scattering (ELS) in the Zetasizer Nano ZP (Malvern Panalytical) using the same material and dispersant parameters described above and the Smoluchowski model. Each measurement had voltage set manually at 80 Volts to avoid ohmic heating that occurred if voltage was set automatically. Measurements in the disposable folded capillary cuvette with an automatic attenuation selection for photon counts were made in triplicates for 20 runs each, and 30 second delay between each replicate. Mathematica was used to fit zeta potential data to the data to the extended Henderson-Hasselbalch equation Ψ=Ψ_max−((Ψ_max−Ψ_min))/((1+10^(((pKa−pH))/n))) to provide the pKa, n and low pH and high pH zeta potential limits Ψ_max and Ψ_min, respectively. The extended model is used here, since the LNP pKa is ionization-state-dependent in a way similar to a polyelectrolyte. […] The isoelectric pI was the pH found by interpolating zeta potential to zero. Cryoelectron Microscopy

[5] = type: physicochemical; details: Table 11a
Method: In certain embodiments, the pKa of the Ionizable Lipids of the Invention included in the LNP is measured by fluorescent enhancement of an anionic lipophilic dye TNS binding to the LNP containing the ionizable lipid. Prior studies have shown that the TNS pKa needs to be near 6.5 for efficient delivery to liver upon IV administration. The pKa in the aqueous phase can be predicted by software such ACDLabs Percepta, resulting in pKas that are higher than the TNS pKa. Given the importance of the LNP pKa in determining their efficiency, we developed new methods (zeta potential, ^1H NMR, modeling) to link the intrinsic pKa of the ionizable lipid to LNP ionization properties, in order to rationally design effective systems for mRNA delivery.
In certain embodiments, the hydrophilic DMG-PEG forms the shell of the LNP. The amount of nucleic acid is represented by the NP mole ratio of the amine on the ionizable lipid to the phosphate groups on the nucleic acid backbone and is typically 3-6. In certain embodiments, the pKa of the LNP to be in the 6-7 range corresponding to the pH in the early endosome. […] The pKa of the LNP was measured using the pH-dependence of fluorescence enhancement of the anionic dye TNS. In certain embodiments, the pKa-dependent endosomal release mechanism was described as an ion-pairing event between the cationic protonated ionizable lipid and anionic endosomal phospholipids where a divergent cone-shape lipid tail of the ionizable lipid facilitates membrane rupture.

[6] = Table 11a; known ionizable lipids, LNP pKa; cited from earlier work
[7] = physchem; type: physicochemical
Method: The pH-dependence of proton NMR chemical shifts was used to measure the pKa's of the ionizable lipid water-soluble analogues (WSA) following published methods5,6. Chemical shifts of piperazine, imidazole, 2-chloroacetic acid and acetic acid were used as internal pH indicators. Solutions for MC3-WSA were prepared with 100 mM KCl, 2 mM piperazine, 2 mM imidazole, and 5 mM water soluble ionizable lipid analogue in 95% H2O-5% D2O. Solutions for the terminal(N1) and aza amines(N2) at the p-position of carboxylic esters of C24-WSA were prepared with 100 mM KCl, 2 mM piperazine, 2 mM imidazole, 0.2 mM DSS, and 5 mM water soluble ionizable lipid analogue in 95% H2O-5% D2O. Solutions for the internal amine (N3) of C24-WSA were prepared with 100 mM KCl, 2 mM chloroacetic acid, 2 mM acetic acid, 0.2 mM DSS, and 5 mM water soluble ionizable lipid analogue in 95% H2O-5% D2O. Solutions were split into two equal volumes and one titrated to a lower pH using 0.1 M HCl and the other to an upper pH using 0.1 M NaOH where the lower and upper pH bracketed the desired range of pH. Intermediate pH values were obtained by mixing different proportions of these two solutions. NMR measurements were performed on a Bruker 400 MHz spectrometer where 1H spectra were acquired at each of ˜24 pH values ranging from the lower to upper pH. […] Chemical shifts from piperazine, imidazole, 2-chloroacetic acid, and acetic acid were then used to calculate the pH of each solution according to published methods5,6 and the chemical shifts of protons adjacent to each nitrogen in the ionizable lipid water sluble analogue headgroup were fit to the Henderson-Hasselbalch equation to provide the pKa of each Nitrogen. Spectra are in Supplementary FIG. 2.

SMILES	pKa,ZP [1]	pI, ZP [1]	pKa, TNS [2]	Diameter (nm) [3] [nm]	mRNA copies [4]	ΔpKa = Classic-Galas [5]	ΔpKa = Classic-TNS [5]	pKa, TNS [6]	difference between NMR-measured and theoretical pKas [7] [units]
CCCCCCCCCCC(CCCCCCCC)COC(=O)CCN(CCC(=O)OCC(CCCCCCCC)CCCCCCCCCC)CCN1CCN(C)CC1 (centres unmarked) [BODD-C2/C2-PipZ]	5.4	5.9	6.6	49	1.9				
CCCCCCCC/C=C\CCCCCCCC(=O)OCC(CN(C)C)OC(=O)CCCCCCC/C=C\CCCCCCCC (centres unmarked) [DODAP, 1,2-dioleoyl-3-dimethylammonium propane]						1.8	2.2	5.8	
CCCCC/C=C\C/C=C\CCCCCCCCOC(=O)CCN(CCC(=O)OCCCCCCCC/C=C\C/C=C\CCCCC)CCN(C)C (racemic) [DL-C2/C2-DMA]	6.9	7.1	8.0	40	1.1				
CCCCC/C=C\C/C=C\CCCCCCCCOC(=O)CCN(CCC(=O)OCCCCCCCC/C=C\C/C=C\CCCCC)CCN1CCCC1 (racemic) [DL-C2/C2-Pyr]	6.8	7.2	7.9	48	1.5				
CCCCC/C=C\C/C=C\CCCCCCCCOC(=O)CCN(CCC(=O)OCCCCCCCC/C=C\C/C=C\CCCCC)CCN1CCN(C)CC1 (racemic) [DL-C2/C2-PipZ]	6.2	7.6	7.8	64	4.3				
CCCCCCCCCCOC(=O)CCCCCN(CCO)CCCCCCCC(=O)OC(CCCCCCCC)CCCCCCCC [Moderna Lipid H]						3.12	2.22	6.68	
CCCCCCCCCCC(CCCCCCCC)COC(=O)CCN(CCCCN1CCN(C)CC1)CCC(=O)OCC(CCCCCCCC)CCCCCCCCCC (centres unmarked) [Lipid C24, Bis(2-octyldodecyl) 3,3′-((4-(4-methylpiperazin-1-yl)butyl)azanediyl)dipropionate]									≤ 0.4
CCCCCCCCCCC(CCCCCCCC)COC(=O)CCN(CCCCN1CCN(C)CC1)CCC(=O)OCC(CCCCCCCC)CCCCCCCCCC (centres unmarked) [BODD-C2/C4-PipZ]	4.9*	5.8	7.0	55	3.3				
CCCCC/C=C\C/C=C\CCCCCCCCC(CCCCCCCC/C=C\C/C=C\CCCCC)OC(=O)CCCN(C)C [MC3]						2.66	2.96	6.44	
CCCCCCCC(=O)N(CCCN1CCCC1)C(CCCCCCCCC(=O)OC(CCCC)CCCCCC)CCCCCCCCC(=O)OC(CCCC)CCCCCC (centres unmarked) [Acuitas Compound 15]						3.38	3.98	6.32	
